What all share (type): cell-based
The subject of data set [1] is Oct4 protein in human MSCs. Description: Western blotting of Oct4 protein expression in human MSCs treated with ET-1. The protocol:
To determine a level of expression of an Oct4 protein in human MSCs when the human MSCs were treated with ET-1, human MSCs purchased from Lonza were treated with an increasing concentration (0, 0.0125, 0.025, 0.125, and 0.25 μg/mL) of ET-1, and a level of protein expression was determined through western blotting.
(Immunoblotting shows a protein as a band on a membrane.)

The test system of data set [2] is human MSCs. The experiment in a line: Real time gDNA PCR comparing length of telomeres in human MSCs treated with ET-1. To be noted: 0.025 μg/mL ET-1, medium replaced after 24 hours, gDNA collected after 3 days; FIG. 3. The protocol:
To check a change in a length of telomeres in human MSCs when the human MSCs were treated or were not treated with ET-1, the human MSCs were prepared so that the cells reached a confluency of 60% on a 60 mm plate. Before the human MSCs were treated with ET-1, a culture broth was replaced with a fresh culture broth. Thereafter, the human MSCs were treated with 0.025 μg/mL of ET-1, and the medium was replaced with a fresh culture broth after 24 hours. After 3 days, gDNA samples were collected. Then, real time gDNA PCR was performed using the samples to compare the lengths of the telomeres by means of ET-1 treatment.

In data set [3] the test system is human MSCs. Description: G-banding karyotype analysis of chromosomal stability in human MSCs treated with ET-1. The following applies: human MSCs treated with ET-1 as in Example 2, FIG. 4. How it is done: For this purpose, the G-banding karyotype analysis method known as a basic test method for evaluating genomic stability was performed. The G-banding karyotype analysis method is a method of pre-treating stem cells with trypsin, which is a proteolytic enzyme, and staining chromosomes with a Giemsa stain. In this case, euchromatin is stained with a light color, and heterochromatin is stained with a dark color. The G-banding karyotype analysis method is the test method most often used for chromosomal analysis because many staining bands are generated.

In data set [4] the test system is Oct4 mRNA in human MSCs. Description: Real time PCR of Oct4 mRNA expression in human MSCs treated with ET-1. The following applies: RNA extracted 24 hours after ET-1 treatment, FIG. 2. How it is done: To compare levels of mRNA expression of Oct4 in human MSCs treated with ET-1, the human MSCs were treated with ET-1, and RNA was extracted therefrom after 24 hours to synthesize complementary cDNA. Thereafter, real time PCR was performed using the complementary cDNA as a template and Oct4 amplification primers set forth in the following SEQ ID NOs: 1 and 2.
SEQ ID NO: 1: 5′-gaggcaacct ggagaatttg-3′ (Oct4 forward primer)
SEQ ID NO: 2: 5′-tagcctgggg taccaaaatg-3′ (Oct4 reverse primer)
In general terms: In qPCR the cycle at which signal appears reflects the starting amount.

Take endothelin-1 [ET-1]: in data set [1] (ET-1 at a concentration of 0.025 μg/mL, FIG. 1), the “level of protein expression of Oct4 across the tested ET-1 concentrations” value is recorded as “highest level of protein expression”. Moreover, the “level of protein expression of the stemness marker Oct4” value in data set [1] (human MSCs (Lonza) treated with 0, 0.0125, 0.025, 0.125 and 0.25 μg/mL ET-1, FIG. 1) is “significantly increased”. Further, in data set [2], the “lengths of the telomeres versus MSCs not treated with ET-1” value is “extended approximately three-fold or more”. The “chromosomal stability (chromosomal dysfunction)” value in data set [3] is “chromosomal dysfunction was not induced”. In data set [4], the “mRNA expression of Oct4” value is “increased”.

(Values after patent US20180087027A1, “METHOD FOR […] OF HUMAN MESENCHYMAL STEM CELLS” (SEOUL NATIONAL UNIVERSITY HOSPITAL, priority 2015, published 2018).)
